Test results taken from the supplement of paper PMC10307832.

Legend:
Assay in all cases: relative viability (nuclei count vs DMSO), 5 days (fraction); higher = more cells survive
[1] = compound: C[C@]1(c2nc3c(C(N)=O)cccc3[nH]2)CCCN1 [Veliparib] + C[C@@H](Oc1cc(-c2cnn(C3CCNCC3)c2)cnc1N)c1c(Cl)ccc(F)c1Cl [Crizotinib] (partner 1 µM)
Procedure, shortened: (§1)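 One day after seeding in 1536-well plates, lung cancer cell lines were dosed by pin tool. Dosing was either single-drug or a fixed anchor-drug dose plus five library-drug doses (not always all listed) in √10 steps. After 5 days, nuclei were stained in one fix-and-stain step and counted on 4× images, and relative viability is the nuclei count of treated wells over that of vehicle wells, given as the median of duplicate plates.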

[2] = compound: C[C@]1(c2nc3c(C(N)=O)cccc3[nH]2)CCCN1 [Veliparib] + O=C(c1cc(Cc2n[nH]c(=O)c3ccccc23)ccc1F)N1CCN(C(=O)C2CC2)CC1 [Olaparib] (partner 8 µM)
Procedure, shortened: as §1

[3] = compound: C[C@]1(c2nc3c(C(N)=O)cccc3[nH]2)CCCN1 [Veliparib] + Nc1nc2[nH]cc(CCc3ccc(C(=O)N[C@@H](CCC(=O)O)C(=O)O)cc3)c2c(=O)[nH]1 [Pemetrexed] (partner 0.2 µM)
Procedure, shortened: as §1

[4] = compound: COC1=CC=C(C=C1)CN2C=CC3=C2C=C(C=C3)C(=O)NO + C[C@]1(O)C[C@@H](c2nc(-c3ccc4ccc(-c5ccccc5)nc4c3)c3c(N)nccn32)C1 [Linsitinib] (partner 1 µM)
Procedure, shortened: as §1

Cell Line | relative viability ([1]; first compound 0.02 µM) | relative viability ([1]; first compound 0.06325 µM) | relative viability ([1]; first compound 0.2 µM) | relative viability ([1]; first compound 0.6325 µM) | relative viability ([1]; first compound 2 µM) | relative viability ([2]; first compound 0.02 µM) | relative viability ([2]; first compound 0.06325 µM) | relative viability ([2]; first compound 0.2 µM) | relative viability ([2]; first compound 0.6325 µM) | relative viability ([2]; first compound 2 µM) | relative viability ([3]; first compound 0.02 µM) | relative viability ([3]; first compound 0.06325 µM) | relative viability ([3]; first compound 0.2 µM) | relative viability ([3]; first compound 0.6325 µM) | relative viability ([3]; first compound 2 µM) | relative viability ([4]; first compound 0.08 µM) | relative viability ([4]; first compound 0.253 µM) | relative viability ([4]; first compound 0.8 µM) | relative viability ([4]; first compound 2.53 µM) | relative viability ([4]; first compound 8 µM)
LCLC-103H | 1.1 | 0.982 | 1.02 | 0.875 | 1.09 | 0.753 | 0.74 | 0.826 | 0.75 | 0.745 | 0.447 | 0.49 | 0.454 | 0.422 | 0.478 | 1.03 | 1.13 | 0.991 | 1.07 | 1.02
RERF-LC-KJ | 0.893 | 0.751 | 0.847 | 0.784 | 0.783 | 1.03 | 0.795 | 0.814 | 0.881 | 0.85 | 0.43 | 0.454 | 0.505 | 0.462 | 0.464 | 0.763 | 0.883 | 0.867 | 0.901 | 0.945
PC-3 [JPC-3] | 0.996 | 0.961 | 0.914 | 0.96 | 0.985 | 1.17 |  | 1.22 | 1.06 | 1.07 | 1.01 |  | 1.33 | 1.28 | 1.08 | 0.963 | 0.962 | 0.97 | 1 | 1.06
EKVX | 0.65 | 0.744 | 1.04 | 0.977 | 0.913 |  | 0.911 | 0.889 | 0.72 | 0.867 |  | 0.391 | 0.421 | 0.461 | 0.444 | 0.825 | 1.07 | 1.06 | 1.12 | 1.03
NCI-H520 | 0.808 | 0.698 | 0.697 | 0.713 | 0.836 | 0.352 | 0.329 | 0.332 | 0.366 | 0.358 | 0.877 | 0.657 | 0.904 | 0.637 | 0.674 | 0.313 | 1.04 | 1.01 | 0.977 | 0.946
NCI-H1355 |  | 1.03 | 0.996 | 0.986 | 0.955 | 0.656 | 0.69 | 0.764 | 0.678 | 0.78 | 0.874 | 0.998 | 1.01 | 0.962 | 1 | 0.792 | 0.826 | 0.812 | 0.895 | 0.809
NCI-H2228 | 0.436 | 0.405 | 0.457 | 0.447 | 0.475 | 0.807 | 0.58 | 0.913 | 0.541 | 0.754 | 0.336 | 0.375 | 0.398 | 0.331 | 0.313 | 0.77 | 0.733 | 0.971 | 0.578 | 0.58
NCI-H441 | 0.663 | 0.645 | 0.745 | 0.593 | 0.63 | 0.691 | 0.637 | 0.573 | 0.598 | 0.595 | 0.292 | 0.265 | 0.3 | 0.254 | 0.289 | 0.304 | 0.676 | 0.573 | 0.579 | 0.42
